Reference: patent US10894807B2 (Siemens Medical Solutions USA, Inc., priority 2011, dated 2021)

Target: human PSMA (Homo sapiens (Human), UniProt Q04609)
Assay: Enzymatic assay for in vitro evaluation of PSMA inhibitors (fluorescent assay of PSMA activity, NAAG substrate, OPA detection of glutamate)
Type: biochemical
Settings: for PSMA Blkg % (10 μM): compound at 10 μM

human PSMA, sequence (Q04609 whole entry): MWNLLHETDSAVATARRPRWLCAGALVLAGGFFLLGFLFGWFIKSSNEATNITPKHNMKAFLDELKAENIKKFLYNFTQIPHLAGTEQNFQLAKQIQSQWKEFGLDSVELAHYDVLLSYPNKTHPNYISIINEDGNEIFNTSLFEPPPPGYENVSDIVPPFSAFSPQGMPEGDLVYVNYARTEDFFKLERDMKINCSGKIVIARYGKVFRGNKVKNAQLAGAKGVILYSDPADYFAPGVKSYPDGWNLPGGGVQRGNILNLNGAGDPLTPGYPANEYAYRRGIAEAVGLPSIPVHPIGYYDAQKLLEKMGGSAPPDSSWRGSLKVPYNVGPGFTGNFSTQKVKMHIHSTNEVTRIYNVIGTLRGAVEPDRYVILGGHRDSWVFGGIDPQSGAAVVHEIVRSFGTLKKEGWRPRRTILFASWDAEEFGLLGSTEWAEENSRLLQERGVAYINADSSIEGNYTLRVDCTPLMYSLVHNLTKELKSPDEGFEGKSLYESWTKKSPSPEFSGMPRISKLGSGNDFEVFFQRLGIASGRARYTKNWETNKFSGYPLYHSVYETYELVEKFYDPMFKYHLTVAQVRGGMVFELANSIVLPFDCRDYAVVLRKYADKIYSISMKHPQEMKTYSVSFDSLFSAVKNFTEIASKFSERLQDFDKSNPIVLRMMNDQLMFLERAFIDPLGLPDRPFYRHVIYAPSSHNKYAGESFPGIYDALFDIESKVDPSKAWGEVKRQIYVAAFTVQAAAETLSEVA

Compound	PSMA Blkg % (10 μM)	Ki
CCC1(CC)C(=O)N([C@@H](CCCCN(Cc2ccc([N+](=O)[O-])cc2)Cc2ccc([N+](=O)[O-])cc2)C(=O)O)C(=O)N([C@@H](CCC(=O)O)C(=O)O)C1=O [P104, (S)-2-(3-((S)-5-(Bis(4-nitrobenzyl)amino)-1-carboxypentyl)-5,5-diethyl-2,4,6-trioxotetrahydropyrimidin-1(2H)-yl)pentanedioic Acid]	7%	–
CCC1(CC)C(=O)N([C@@H](CCCCN(Cc2ccc([N+](=O)[O-])cc2)C(=O)CCCCn2cc(CCCF)nn2)C(=O)O)C(=O)N([C@@H](CCC(=O)O)C(=O)O)C1=O [P105, (S)-2-(3-((S)-1-Carboxy-5-(5-(4-(3-fluoropropyl)-1H-1,2,3-triazol-1-yl)-N-(4-nitrobenzyl)pentanamido)pentyl)-5,5-diethyl-2,4,6-trioxotetrahydropyrimidin-1(2H)-yl)pentanedioic Acid]	5%	–
O=C(O)CC[C@@H](C(=O)O)N1C(=O)N([C@@H](CCCCNC(=O)OCc2ccccc2)C(=O)O)C(=O)C2(CCC2)C1=O [P106, (2S)-2-(8-((S)-5-(Benzyloxycarbonylamino)-1-carboxypentyl)-5,7,9-trioxo-6,8-diazaspiro[3.5]nonan-6-yl)pentanedioic Acid]	67%	–
CCC1(CC)C(=O)N([C@@H](CCCCNS(=O)(=O)c2ccc([N+](=O)[O-])cc2)C(=O)O)C(=O)N([C@@H](CCC(=O)O)C(=O)O)C1=O [P107, (S)-2-(3-((S)-1-Carboxy-5-(4-nitrophenylsulfonamido)pentyl)-5,5-diethyl-2,4,6-trioxotetrahydropyrimidin-1(2H)-yl)pentanedioic Acid]	19%	–
CCC1(CC)C(=O)N([C@@H](CCCCNC(=O)NCc2ccccc2)C(=O)O)C(=O)N([C@@H](CCC(=O)O)C(=O)O)C1=O [P108, (S)-2-(3-((S)-5-(3-benzylureido)-1-carboxypentyl)-5,5-diethyl-2,4,6-trioxotetrahydropyrimidin-1(2H)-yl)pentanedioic Acid]	11%	–
O=C(O)CCC(C(=O)O)n1cc(COc2ccc3ccc(=O)oc3c2)nn1 (stereo not shown) [P109, 2-(4-(((2-oxo-2H-chromen-7-yl)oxy)methyl)-1H-1,2,3-triazol-1-yl)pentanedioic Acid]	24%	–
CCC1(CC)C(=O)N([C@@H](CCCCNCc2ccc([N+](=O)[O-])cc2)C(=O)O)C(=O)N([C@@H](CCC(=O)O)C(=O)O)C1=O [P110, (S)-2-(3-((S)-1-carboxy-5-(4-nitrobenzylamino)pentyl)-5,5-diethyl-2,4,6-trioxotetrahydropyrimidin-1(2H)-yl)pentanedioic Acid]	8%	–
O=C(O)CC[C@H](NC(=O)CCN(O)C(=O)CCCc1ccc(-n2cc(CCCF)nn2)cc1)C(=O)O [P111, (S)-2-(3-(4-(4-(4-(3-Fluoropropyl)-1H-1,2,3-triazol-1-yl)phenyl)-N-hydroxybutanamido)propanamido)pentanedioic Acid]	9%	–
CCC1(CC)C(=O)N([C@@H](CCCCNCc2ccc(OC)cc2)C(=O)O)C(=O)N([C@@H](CCC(=O)O)C(=O)O)C1=O [P112, (S)-2-(3-((S)-1-Carboxy-5-(4-methoxybenzylamino)pentyl)-5,5-diethyl-2,4,6-trioxotetrahydropyrimidin-1(2H)-yl)pentanedioic Acid]	4%	–
CCC1(CC)C(=O)N([C@@H](CCCCNC(=O)c2ccc(F)nc2)C(=O)O)C(=O)N([C@@H](CCC(=O)O)C(=O)O)C1=O [P113, (S)-2-(3-((S)-1-Carboxy-5-(6-fluoronicotinamido)pentyl)-5,5-diethyl-2,4,6-trioxotetrahydropyrimidin-1(2H)-yl)pentanedioic Acid]	11%	–
CCC1(CC)C(=O)N([C@@H](CCCCNC/C=C/c2ccc(-n3cc(CCCF)nn3)cc2)C(=O)O)C(=O)N([C@@H](CCC(=O)O)C(=O)O)C1=O [P114, (S)-2-(3-((S)-1-Carboxy-5-((E)-3-(4-(4-(3-fluoropropyl)-1H-1,2,3-triazol-1-yl)phenyl)allylamino)pentyl)-5,5-diethyl-2,4,6-trioxotetrahydropyrimidin-1(2H)-yl)pentanedioic Acid]	8%	–
O=C(O)CC[C@H](NC(=O)C[C@H](NC(=O)CCCc1ccc(-n2cc(CCCF)nn2)cc1)C(=O)O)C(=O)O [P115]	36%	–
O=C(O)CC[C@H](NC(=O)C[C@H](NC(=O)CCCNC(=O)OCc1ccccc1)C(=O)O)C(=O)O [P116, (10S,14S)-3,8,12-Trioxo-1-phenyl-2-oxa-4,9,13-triazahexadecane-10,14,16-tricarboxylic Acid]	31%	–
O=C(O)CC[C@@H](C(=O)O)N1C(=O)NC(=O)/C(=C(/O)CCC(NC(=O)OCC2c3ccccc3-c3ccccc32)C(=O)O)C1=O (stereo partly shown) [P117]	18%	–
CCC1(CC)C(=O)N([C@@H](CCCCNC(=O)OCc2ccc([N+](=O)[O-])cc2)C(=O)O)C(=O)N([C@@H](CCC(=O)O)C(=O)O)C1=O [P118, (S)-2-(3-((S)-1-Carboxy-5-((4-nitrobenzyloxy)carbonylamino)pentyl)-5,5-diethyl-2,4,6-trioxotetrahydropyrimidin-1(2H)-yl)pentanedioic Acid]	13%	–
O=C(O)CC[C@H](NC(=O)C[C@H](NC(=O)CCCCNC(=O)c1ccccc1)C(=O)O)C(=O)O [P119, (S)-2-((S)-3-(5-Benzamidopentanamido)-3-carboxypropanamido)pentanedioic Acid]	26%	–
O=C(O)CC[C@@H](C(=O)O)N1C(=O)CC(=O)N([C@@H](CCCCNC(=O)OCc2ccc([N+](=O)[O-])cc2)C(=O)O)C1=O [P120, (S)-2-(3-((S)-1-Carboxy-5-((4-nitrobenzyloxy)carbonylamino)pentyl)-2,4,6-trioxotetrahydropyrimidin-1(2H)-yl)pentanedioic Acid]	15%	–

Compound	PSMA Blkg % (10 μM)	Ki
NC(=O)CCC(C(=O)O)n1cc(COc2ccc3ccc(=O)oc3c2)nn1 (stereo not shown) [P121, 5-Amino-5-oxo-2-(4-(((2-oxo-2H-chromen-7-yl)oxy)methyl)-1H-1,2,3-triazol-1-yl)pentanoic Acid]	7%	–
COc1ccc(CCCC(=O)N[C@@H](CC(=O)N[C@@H](CCC(=O)O)C(=O)O)C(=O)O)cc1 [P122, (S)-2-((S)-3-Carboxy-3-(4-(4-methoxyphenyl)butanamido)propanamido)-pentanedioic Acid]	18%	–
O=C(O)CC[C@H](NC(=O)C[C@H](NC(=O)CCCc1ccc([N+](=O)[O-])cc1)C(=O)O)C(=O)O [P123, (S)-2-((S)-3-Carboxy-3-(4-(4-nitrophenyl)butanamido)propanamido)pentanedioic Acid]	17%	–
O=C(O)CC[C@@H](C(=O)O)N1C(=O)CC(=O)NC1=O [P126]	12%	–
Nc1ccc(/C(O)=C2\C(=O)NC(=O)N([C@@H](CCC(=O)O)C(=O)O)C2=O)cc1 [P127, (S,Z)-2-(5-((4-Aminophenyl)(hydroxy)methylene)-2,4,6-trioxotetrahydropyrimidin-1(2H)-yl)pentanedioic Acid]	10%	–
O=C(O)CC[C@@H](C(=O)O)N1C(=O)CC(=O)N([C@@H](CCCCNS(=O)(=O)c2ccc([N+](=O)[O-])cc2)C(=O)O)C1=O [P128, (S)-2-(3-((S)-1-Carboxy-5-(4-nitrophenylsulfonamido)pentyl)-2,4,6-trioxotetrahydropyrimidin-1(2H)-yl)pentanedioic Acid]	12%	–
O=C(O)CC[C@@H](C(=O)O)N1C(=O)CC(=O)N([C@@H](CCCCNC(=O)NCc2ccccc2)C(=O)O)C1=O [P129, (S)-2-(3-((S)-5-(3-Benzylureido)-1-carboxypentyl)-2,4,6-trioxotetrahydropyrimidin-1(2H)-yl)pentanedioic Acid]	10%	–
CCC1(CC)C(=O)N([C@@H](CCCCNC(=S)Nc2ccc(-n3cc(CCCF)nn3)cc2)C(=O)O)C(=O)N([C@@H](CCC(=O)O)C(=O)O)C1=O [P130, (S)-2-(3-((S)-1-Carboxy-5-(3-(4-(4-(3-fluoropropyl)-1H-1,2,3-triazol-1-yl)phenyl)thioureido)pentyl)-5,5-diethyl-2,4,6-trioxotetrahydropyrimidin-1 (2H)-yl)pentanedioic Acid]	10%	–
O=C(O)CC[C@H](NC(=O)CN(O)C(=O)CCCCNC(=O)c1ccccc1)C(=O)O [P131, (S)-2-(2-(5-Benzamido-N-hydroxypentanamido)acetamido)pentanedioic Acid]	6%	–
COc1ccc(CCCC(=O)N(O)CC(=O)N[C@@H](CCC(=O)O)C(=O)O)cc1 [P132, (S)-2-(2-(N-Hydroxy-4-(4-methoxyphenyl)butanamido)acetamido)pentanedioic Acid]	17%	–
CN(C(=O)N[C@@H](CCC(=O)O)C(=O)O)[C@@H](CCCCNC(=O)c1ccc(F)nc1)C(=O)O [P133, (S)-2-(3-((S)-1-Carboxy-5-(6-fluoronicotinamide)pentyl)-3-methylureido)-pentanedioic Acid]	95%	125 nM
Nc1ccc(CCCC(=O)N(O)CC(=O)N[C@@H](CCC(=O)O)C(=O)O)cc1 [P134, (S)-2-(2-(4-(4-Aminophenyl)-N-hydroxybutanamido)acetamido)pentanedioic Acid]	37%	–
O=C(O)CC[C@@H](NC(=O)N(O)[C@@H](CC(=O)NCc1ccccc1)C(=O)O)C(=O)O [P135, (R)-2-(3-((S)-3-(Benzylamino)-1-carboxy-3-oxopropyl)-3-hydroxyureido)pentanedioic Acid]	42%	–
[N-]=[N+]=Nc1ccc(CCCC(=O)NC(Cc2cn(C(CCC(=O)O)C(=O)O)nn2)C(=O)O)cc1 (stereo not shown) [P137]	3%	–
CCC1(CC)C(=O)N([C@@H](CCCCNC(=O)OCc2ccccc2)C(=O)O)C(=S)N([C@@H](CCC(=O)O)C(=O)O)C1=O [P138, (S)-2-(3-((S)-5-(Benzyloxycarbonylamino)-1-carboxypentyl)-5,5-diethyl-4,6-dioxo-2-thioxotetrahydropyrimidin-1(2H)-yl)pentanedioic Acid]	6%	–
O=C(O)CC[C@H](NC(=O)N(O)[C@@H](CCCNC(=O)OCc1ccccc1)C(=O)O)C(=O)O [P139, (8S,12S)-9-Hydroxy-3,10-dioxo-1-phenyl-2-oxa-4,9,11-triazatetradecane-8,12,14-tricarboxylic Acid]	16%	–
